From patent publication US8716294B2, “Methods for treating inflammatory conditions” (Melior Discovery, Inc., priority 2006, dated 2014)

How the values were obtained:
Assay type in all cases: in vivo
ICR:CD1 male mice [1] = test: Delayed-type hypersensitivity (DTH), sheep red blood cell challenge, footpad swelling; details: SRBC challenge into footpad, all three doses (10, 30, 100 mg/kg)
Method: In this study, tenilsetam was assessed for its ability to affect the delayed-type hypersensitivity (DTH) reactions. DTH reactions are antigen-specific cell-mediated immune responses that can mediate harmful (e.g., allergic dermatitis and autoimmunity) aspects of immune function. The immune reaction induced by the method described below is characterized by swelling at the site of challenge and by an infiltration of monocytes/macrophages and lymphocytes into the epidermis and dermis. This model for skin DTH reactions has been used widely to monitor cell-mediated immune responses in vivo. […] (dexamethasone), a steroid anti-inflammatory, reduces cell-mediated immune responses and was employed to pharmacologically validate the assay.
Materials and Methods. ICR:CD1 male mice (Harlan) 12 to 13 weeks of age were used for this study. Animals were kept on a 12 hr light dark cycle and fed ad libitum. On day 1 of the study, mice were injected IV with 1×10^6 of washed sheep red blood cells in a volume of 200 μL. Mice were administered tenilsetam on day 6. […]
On day 7, mice were re-administered drug as above. Footpad thickness of both the back right and back left foot pads was measured using a digital micrometer. […]
Data are expressed as the average±SEM. Data were averaged and analyzed by ANOVA followed by a post-hoc Tukey's test with a p value of less then 0.05 indicating a statistical difference. […]

TNFα = test: Lipopolysaccharide general inflammation / septic shock model, TNFα by ELISA; details: mice, LPS 0.25 mg/kg ip, blood 90 minutes after LPS; doses of 10 and 30 mg/kg, given 15 minutes prior to LPS; FIG. 3
Description: Lipopolysaccharide General Inflammation. Bolus injection of lethal or sublethal doses of lipopolysaccharide (LPS; the major component of bacterial cell wall) results in the rapid and transient rise in tumor necrosis factor (TNFα) levels in serum in mammals. This animal model was developed to mirror certain aspects of septic shock in humans. This model is also an effective first-line general inflammation model and may be used to determine the anti-inflammatory potential of test compounds.
Materials and methods. Male ICR:CD1 mice (Harlan Sprague Dawley, Indianapolis, Ind.) 9 to 10 weeks of age were housed three per cage, kept on a standard 12 hr light cycle and fed western (high-fat) diet for 5.5 weeks for these studies. Mice were provided food and water ad libitum.
Lipopolysaccharide (heat killed E. coli 0127:B5; SigmaAldrich) was prepared in water at a concentration of 0.025 mg/ml. LPS was dosed at a volume of 10 ml/kg (ip) to produce a final dose of 0.25 mg/kg or 7.5 μg/mouse. […] Plasma was prepared from blood and TNFα levels determined by ELISA as described below.
Serum TNFα levels were determined using the OptEIA™ mouse TNFα ELISA kit (BD Biosciences) as per directions of the manufacturer. Data were averaged and analyzed by ANOVA followed by a post-hoc Tukey's test with a p value of less then 0.05 indicating a statistical difference. […]

ICR:CD1 male mice [2] = test: Oxazolone contact hypersensitivity (contact dermatitis), ear redness and thickness; details: all three doses (10, 30, 100 mg/kg)
Method: Contact Hypersensitivity (Contact Dermatitis). Contact hypersensitivity (CHS)^3 is a T cell-mediated cutaneous immune/inflammatory reaction to haptens. Oxazolone can be used to evoke a contact hypersensitivity reaction and produce an animal model of contact dermatitis. Tenilsetam was assessed for its ability to affect oxazolone mediated contact dermatitis reaction.
Materials and Methods. ICR:CD1 male mice (Harlan) 12 to 13 weeks of age were used for this study. Animals were kept on a 12 hr light dark cycle and fed ad libitum.
Oxazolone sensitization. Mice were exposed to 50 μL of 3% oxazolone (in 100% ethanol) via topical application to the skin of the abdomen. Additional exposure was via the 4 paws with a small amount of oxazolone.
Oxazolone challenge. On day 5, both ears of mice were exposed to 1% oxazolone (20 μL per ear; 10 μL/side of ear).
Analysis. On day 6, ears were scored for redness on a 0-3 scoring basis and were measured for thickness using a micrometer. These values were recorded, group values were averaged and statistical differences determined by ANOVA followed by a Mann-Whitney U-test (for visual score) or by Tukey's test (for ear thickness). A p value of less than 0.05 was used to indicate statistical significance.
For this study, there were 5 groups: vehicle, and tenilsetam at 3 dose levels: 10, 30 and 100 mg/kg. In addition, there was a dexamethasone group. […]

## O=C1NCCNC1c1cccs1 (racemic) [Tenilsetam, (+/−)-3-(2-thienyl)-2-piperazinone]
ICR:CD1 male mice [1]
  foot swelling by visual examination: significantly decreased
ICR:CD1 male mice [1]; FIG. 1
  foot swelling as measured using a micrometer: significantly decreased
TNFα
  TNFα levels: decreased
ICR:CD1 male mice [2]; day 6, 0-3 redness score, FIG. 2A
  ear swelling after oxazolone challenge, visual scoring: significantly decreased
ICR:CD1 male mice [2]; day 6, micrometer, FIG. 2B
  ear swelling after oxazolone challenge, ear thickness measurements: significantly decreased
